Laboratory results as given in patent US20200147059A1, “NEW THERAPEUTIC USES OF ENZYME INHIBITORS” (Proximagen, LLC, priority 2017, published 2020).

Experiments:
[1] = biological target: T1, human VAP-1 (SSAO) (Homo sapiens, UniProt Q16853); assay: VAP-1 Inhibition Assay; format: biochemical; details: purified recombinantly expressed human VAP-1 (SSAO), benzylamine substrate, room temperature
T1 construct: made in house
T1 sequence (Q16853 29-763 limits assumed): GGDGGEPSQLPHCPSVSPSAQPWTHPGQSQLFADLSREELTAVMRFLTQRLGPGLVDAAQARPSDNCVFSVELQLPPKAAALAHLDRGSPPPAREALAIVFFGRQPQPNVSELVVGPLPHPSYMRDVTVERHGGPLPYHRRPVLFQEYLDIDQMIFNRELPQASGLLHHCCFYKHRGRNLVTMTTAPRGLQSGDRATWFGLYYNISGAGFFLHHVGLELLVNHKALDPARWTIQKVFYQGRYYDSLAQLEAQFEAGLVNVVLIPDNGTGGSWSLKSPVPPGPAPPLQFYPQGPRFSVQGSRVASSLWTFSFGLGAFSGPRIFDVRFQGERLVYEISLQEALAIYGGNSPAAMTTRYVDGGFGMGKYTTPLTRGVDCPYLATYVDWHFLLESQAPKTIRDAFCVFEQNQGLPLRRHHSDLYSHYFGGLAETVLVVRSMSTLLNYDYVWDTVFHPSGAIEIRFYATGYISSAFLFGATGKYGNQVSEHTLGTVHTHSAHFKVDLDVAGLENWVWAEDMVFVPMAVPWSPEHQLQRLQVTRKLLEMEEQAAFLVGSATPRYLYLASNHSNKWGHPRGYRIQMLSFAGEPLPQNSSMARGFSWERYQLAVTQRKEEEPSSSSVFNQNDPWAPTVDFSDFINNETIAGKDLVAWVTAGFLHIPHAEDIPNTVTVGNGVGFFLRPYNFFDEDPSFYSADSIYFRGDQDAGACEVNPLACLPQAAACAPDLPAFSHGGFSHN
Description: This assay is performed at room temperature with purified recombinantly expressed human VAP-1 (SSAO). Enzyme was prepared essentially as described in Ohman et al. (Protein Expression and Purification 46 (2006) 321-331). The enzyme activity is assayed with benzylamine as substrate by measuring either benzaldehyde production, using 14C-labeled substrate, or by utilizing the production of hydrogen peroxide in a horseradish peroxidise (HRP) coupled reaction. Briefly, test compounds are dissolved in dimethyl sulfoxide (DMSO) to a concentration of 10 mM. Dose-response measurements are assayed by either creating 1:10 serial dilutions in DMSO to produce a 7 point curve or by making 1:3 serial dilutions in DMSO to produce 11 point curves. The top concentrations are adjusted depending on the potency of the compounds and subsequent dilution in reaction buffer yielded a final DMSO concentration ≤2%.
Hydrogen peroxide detection: In a horseradish peroxidise (HRP) coupled reaction, hydrogen peroxide oxidation of 10-acetyl-3,7-dihydroxyphenoxazine produces resorufin, which is a highly fluorescent compound (Zhout and Panchuk-Voloshina. Analytical Biochemistry 253 (1997) 169-174; AmplexR Red Hydrogen Peroxide/peroxidise Assay kit, Invitrogen A22188). Enzyme and compounds in 50 mM sodium phosphate, pH 7.4 are set to pre-incubate in flat-bottomed microtiter plates for approximately 15 minutes before initiating the reaction by addition of a mixture of HRP, benzylamine and Amplex reagent. Benzylamine concentration is fixed at a concentration corresponding to the Michaelis constant, determined using standard procedures. Fluorescence intensity is then measured at several time points during 1-2 hours, exciting at 544 nm and reading the emission at 590 nm. For the human SSAO assay final concentrations of the reagents in the assay wells are: SSAO enzyme 1 mg/ml, benzylamine 100 μM, Amplex reagent 20 μM, HRP 0.1 U/mL and varying concentrations of test compound. The inhibition is measured as % decrease of the signal compared to a control without inhibitor (only diluted DMSO). The background signal from a sample containing no SSAO enzyme is subtracted from all data points. Data is fitted to a four parameter logistic model and IC50 values are calculated, for example by using the GraphPad Prism 4 or XLfit 4 programs.

[2] = tested on: sumatriptan-primed rats; assay: stress induced allodynia in a rat model of medication overuse headache (MOH); format: in vivo; details: bright light stress, oral 33.3 mg/ml, 3 ml/kg, measured day 21 over 5 h
Description: The effects of compounds on stress induced allodynia in a rat model of medication overuse headache (MOH) The effects of compounds on stress induced cephalic and extracephalic allodynia in sumatriptan-primed rats was tested.
Sprague Dawley rats were implanted with osmotic minipumps (model 2001; Alzet, Cupertino, Calif., USA) providing continuous infusion of sumatriptan (0.6 mg/kg/day, s.c) or vehicle (saline, 0.9% NaCl) for 7 days. Mechanical facial (FIG. 1; A) and hindpaw (FIG. 1; C) allodynia was measured during a 19 day time course.
On day 20, when mechanical thresholds are at basal levels, all rats received either 4-{5-[3-(4-Fluorophenyl)-3H-imidazo[4,5-c]pyridin-2-yl]pyridin-2-yl}morpholine (compound 4) or vehicle orally (33.3 mg/ml, Dose 3 ml/kg) and then they were exposed to bright lights for 1 h (bright light stress; BLS). Rats received a second dose of the assigned treatment in the afternoon.
On day 21 all rats received a third dose of the assigned treatment and then they were again exposed to BLS for 1 h. Mechanical facial (FIG. 1; B) and hindpaw (FIG. 1; D) allodynia was measured over a 5 h time course.
Sumatriptan-treated, but not saline-treated, rats developed generalized allodynia during minipump infusion measured in the periorbital and hindpaw regions (FIG. 1; A, C; day 6). Mechanical thresholds returned to baseline on days 10 and 19. […]

[3] = CNS penetration (brain:plasma ratio); format: in vivo; details: rat, whole brain homogenate and plasma, intravenous; total brain:plasma ratio adjusted for plasma protein binding and brain tissue binding; read-out: unbound (free) brain:plasma ratio
Description: Central nervous system (CNS) penetration of compounds of the invention can be determined by for example, intravenous dosing in a rat and subsequent quantitative LCMS analysis of the drug concentration in plasma and whole brain homogenate. The total brain:plasma ratio can then be calculated. This total ratio can be adjusted for plasma protein binding (PPB) and brain tissue binding (BTB) determined by standard means to give an unbound (free) brain:plasma ratio. For example, Compound 4 of the invention has an unbound (free) brain:plasma ratio of 0.72, indicating good CNS penetration of the compound.

[4] = biological target: T2, VAP-1 (Homo sapiens, UniProt Q16853); details: known; cited from earlier work
T2 sequence (Q16853 1-763): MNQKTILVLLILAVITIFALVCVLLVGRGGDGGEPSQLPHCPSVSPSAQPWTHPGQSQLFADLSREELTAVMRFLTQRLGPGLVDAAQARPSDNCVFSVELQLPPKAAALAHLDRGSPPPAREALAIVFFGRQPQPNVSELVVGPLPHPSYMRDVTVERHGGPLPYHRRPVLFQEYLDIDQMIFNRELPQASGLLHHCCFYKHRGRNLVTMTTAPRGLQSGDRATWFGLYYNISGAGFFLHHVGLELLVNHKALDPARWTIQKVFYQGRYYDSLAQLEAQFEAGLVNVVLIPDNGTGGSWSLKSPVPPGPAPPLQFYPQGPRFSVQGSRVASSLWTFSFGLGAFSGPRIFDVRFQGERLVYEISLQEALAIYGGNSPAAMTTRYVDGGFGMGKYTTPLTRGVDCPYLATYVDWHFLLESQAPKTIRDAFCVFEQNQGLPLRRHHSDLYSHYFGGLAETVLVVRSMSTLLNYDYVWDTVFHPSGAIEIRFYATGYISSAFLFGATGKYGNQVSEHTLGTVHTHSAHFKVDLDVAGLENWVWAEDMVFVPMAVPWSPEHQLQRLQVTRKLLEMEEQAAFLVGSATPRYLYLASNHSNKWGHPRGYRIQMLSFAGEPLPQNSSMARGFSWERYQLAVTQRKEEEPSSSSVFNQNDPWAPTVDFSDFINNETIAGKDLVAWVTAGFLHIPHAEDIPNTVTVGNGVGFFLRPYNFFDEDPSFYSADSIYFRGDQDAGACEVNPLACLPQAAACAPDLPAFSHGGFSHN

[5] = tested on: sumatriptan-primed rats; details: Kopruszinski et al, Cephalalgia, 2017; cited from earlier work
[6] = phase IIb chronic migraine study; cited from earlier work

## CC(=O)N1CCN(c2ccc(-c3nc4ccncc4n3-c3ccc(F)cc3)cn2)CC1 [Compound 2, 1-(4-{5-[3-(4-Fluorophenyl)-3H-imidazo[4,5-c]pyridin-2-yl]pyridin-2-yl}piperazin-1-yl)ethan-1-one]
[1]
  IC50: 31 nM

## C=C(CNN)c1ccccc1 [LJP1207, reference compound]
[1]
  IC50: 34 nM

## Fc1ccc(-n2c(-c3ccc(N4CCOCC4)nc3)nc3ccncc32)cc1 [Compound 4, 4-{5-[3-(4-Fluorophenyl)-3H-imidazo[4,5-c]pyridin-2-yl]pyridin-2-yl}morpholine]
[1]
  IC50: 13 nM
[2]
  stress-induced hindpaw allodynia: significantly reduced
  stress-induced periorbital allodynia: significantly reduced
[3]
  unbound brain:plasma ratio (Kp,uu): 0.72

## CS(=O)(=O)N1CCN(c2ccc(-c3nc4ccncc4n3-c3ccc(F)cc3)cn2)CC1 [Compound 3, 1-{5-[3-(4-Fluorophenyl)-3H-imidazo[4,5-c]pyridin-2-yl]pyridin-2-yl}-4-methanesulfonylpiperazine]
[1]
  IC50: 4 nM

## C[C@@](Cc1ccc(O)c(O)c1)(NN)C(=O)O [(S)-Carbidopa, reference compound]
[1]
  IC50: 142 nM
[4]
  inhibition of VAP-1: very good inhibitors of VAP-1

## NC(CO)C(=O)NNCc1ccc(O)c(O)c1O (stereo not drawn) [benserazide, Benserazide]
[4]
  inhibition of VAP-1: very good inhibitors of VAP-1

B1: TEV48125: a fully humanised CGRP antibody (antibody, chains of the INN, looked up, V domains shown)
VH: EVQLVESGGGLVQPGGSLRLSCAASGFTFSNYWISWVRQAPGKGLEWVAEIRSESDASATHYAEAVKGRFTISRDNAKNSLYLQMNSLRAEDTAVYYCLAYFDYGLAIQNYWGQGTLVTVSS
VL: EIVLTQSPATLSLSPGERATLSCKASKRVTTYVSWYQQKPGQAPRLLIYGASNRYLGIPARFSGSGSGTDFTLTISSLEPEDFAVYYCSQSYNYPYTFGQGTKLEIK
[5]
  efficacy in the MOH model: efficacious
[6]
  efficacy in human clinical trials: efficacious
